Biological target: Recombinant human KIF18A (1-467 His-tagged) protein (Homo sapiens (Human), UniProt Q8NI77)
Experiment: KIF18A Enzyme Assay: microtubule-stimulated ATPase activity (ADP-Glo)
Settings: read-out: KIF18A ATPase IC50; 30 nM KIF18A, 30 μg/mL pig microtubules, ATP at Km 75 μM, ADP-Glo luminescence
Source text: KIF18A Enzyme Assay: Microtubule-stimulated ATPase activity assay is used to measure KIF18A enzyme activity after treatment with compound. Compounds were 2-fold serially diluted in DMSO (Sigma Inc) over 22-point concentration range. […] The assay measures ADP formed from the ATPase reaction.

Recombinant human KIF18A (1-467 His-tagged) protein, sequence (Q8NI77 1-467): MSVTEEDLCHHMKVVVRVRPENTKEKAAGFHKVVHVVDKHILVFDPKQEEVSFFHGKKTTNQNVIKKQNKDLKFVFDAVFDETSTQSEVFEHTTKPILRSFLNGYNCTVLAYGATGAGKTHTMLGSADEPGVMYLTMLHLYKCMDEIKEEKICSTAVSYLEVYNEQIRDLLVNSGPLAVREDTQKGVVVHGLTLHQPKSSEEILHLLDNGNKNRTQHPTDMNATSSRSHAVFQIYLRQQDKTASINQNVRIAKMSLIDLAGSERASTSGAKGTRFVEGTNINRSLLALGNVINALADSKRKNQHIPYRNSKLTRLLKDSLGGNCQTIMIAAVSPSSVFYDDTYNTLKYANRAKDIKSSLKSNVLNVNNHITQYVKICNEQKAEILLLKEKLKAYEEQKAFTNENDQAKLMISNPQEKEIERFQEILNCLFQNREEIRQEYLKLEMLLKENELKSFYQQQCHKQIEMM
Recombinant human KIF18A (1-467 His-tagged) protein, sequence (P02550 whole entry partner): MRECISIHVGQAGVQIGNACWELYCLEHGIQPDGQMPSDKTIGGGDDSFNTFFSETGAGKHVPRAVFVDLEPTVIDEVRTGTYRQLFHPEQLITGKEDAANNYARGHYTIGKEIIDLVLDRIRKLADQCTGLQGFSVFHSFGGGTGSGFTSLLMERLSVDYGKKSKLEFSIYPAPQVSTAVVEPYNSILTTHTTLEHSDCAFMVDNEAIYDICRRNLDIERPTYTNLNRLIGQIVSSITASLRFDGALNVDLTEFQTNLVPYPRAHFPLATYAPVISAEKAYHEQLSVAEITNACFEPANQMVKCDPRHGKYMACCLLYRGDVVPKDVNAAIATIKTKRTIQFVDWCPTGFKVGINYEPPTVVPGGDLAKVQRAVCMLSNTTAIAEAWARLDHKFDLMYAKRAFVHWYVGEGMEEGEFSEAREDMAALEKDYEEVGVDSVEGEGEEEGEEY
Recombinant human KIF18A (1-467 His-tagged) protein, sequence (P02554 whole entry partner): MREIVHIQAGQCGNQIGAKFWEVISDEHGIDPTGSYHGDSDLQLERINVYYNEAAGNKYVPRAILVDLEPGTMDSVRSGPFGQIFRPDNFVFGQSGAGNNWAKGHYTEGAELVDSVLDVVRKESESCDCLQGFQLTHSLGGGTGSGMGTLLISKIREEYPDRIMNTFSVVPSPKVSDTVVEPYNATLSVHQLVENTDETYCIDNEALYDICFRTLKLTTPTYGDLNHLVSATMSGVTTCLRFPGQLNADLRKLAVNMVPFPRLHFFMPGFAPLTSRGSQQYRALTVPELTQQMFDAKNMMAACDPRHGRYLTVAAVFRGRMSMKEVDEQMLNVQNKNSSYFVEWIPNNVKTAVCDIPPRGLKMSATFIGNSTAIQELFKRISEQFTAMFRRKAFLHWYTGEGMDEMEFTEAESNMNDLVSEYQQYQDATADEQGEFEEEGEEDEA

Structure (SMILES) | IC50 [nM]
Cc1cc(NC(=O)c2ccc(NS(C)(=O)=O)cc2N2CCC3(CC2)CC3)nc(N2CCC(F)CC2)n1 [Example 11-81, N-(2-(4-Fluoropiperidin-1-yl)-6-methylpyrimidin-4-yl)-4-(methylsulfonamido)-2-(6-azaspiro[2.5]octan-6-yl)benzamide] | 60
Cc1cc(NC(=O)c2ccc(NS(=O)(=O)C3CCC3)cc2N2CCC3(CC2)CC3)nc(N2CCC(F)(F)CC2)n1 [Example 6-11, 4-(Cyclobutanesulfonamido)-N-(2-(4,4-difluoropiperidin-1-yl)-6-methylpyrimidin-4-yl)-2-(6-azaspiro[2.5]octan-6-yl)benzamide] | 127
Cc1cc(NC(=O)c2ccc(S(=O)(=O)C(C)C)cc2N2CCC3(CC2)CC3)nc(N2CCC(F)(F)CC2)n1 [Example 14-3, N-(2-(4,4-Difluoropiperidin-1-yl)-6-methylpyrimidin-4-yl)-4-(isopropylsulfonyl)-2-(6-azaspiro[2.5]octan-6-yl)benzamide] | 128
Cc1cc(NC(=O)c2ccc(NS(=O)(=O)C3([C@@H](C)O)CC3)cc2N2CCC3(CC2)CC3)nc(N2CCC(F)(F)CC2)n1 [Example 6-31-1, (R)-N-(2-(4,4-Difluoropiperidin-1-yl)-6-methylpyrimidin-4-yl)-4-((1-(1-hydroxyethyl)cyclopropane)-1-sulfonamido)-2-(6-azaspiro[2.5]octan-6-yl)benzamide] | 324
Cc1cc(NC(=O)c2ccc(NS(=O)(=O)CCO)cc2N2CCC3(CCC3)CC2)nc(N2CCC(F)(F)CC2)n1 [Example 11-40, N-(2-(4,4-Difluoropiperidin-1-yl)-6-methylpyrimidin-4-yl)-4-((2-hydroxyethyl)sulfonamido)-2-(7-azaspiro[3.5]nonan-7-yl)benzamide] | 109
Cc1cc(NC(=O)c2ccc(NS(=O)(=O)CC3CC3)cc2N2CCC3(CC2)CC3)nc(N2CC(F)(F)C2)n1 [Example 11-78, 4-((Cyclopropylmethyl)sulfonamido)-N-(2-(3,3-difluoroazetidin-1-yl)-6-methylpyrimidin-4-yl)-2(6-azaspiro[2.5]octan-6-yl)benzamide] | 125
Cc1cc(NC(=O)c2cc(C)c(NS(=O)(=O)CCO)cc2N2CCC3(CC2)CC3)nc(N2CCC(F)(F)CC2)n1 [Example 6-35, N-(2-(4,4-Difluoropiperidin-1-yl)-6-methylpyrimdin-4-yl)-4-((2-hydroxyethyl)sulfonamido)-5-methyl-2-(6-azaspiro[2.5]octan-6-yl)benzamide] | 144

Further lines, results first:

IC50 [nM] | Structure (SMILES)
127 | Cc1cc(NC(=O)c2ccc(S(=O)(=O)N[C@H](C)CO)cc2N2CCC3(CC2)CC3)nc(N2CCC(F)(F)CC2)n1 [Example 17-6, (R)-N-(2-(4,4-Difluoropiperidin-1-yl)-6-methylpyrimidin-4-yl)-4-(N-(1-hydroxypropan-2-yl)sulfamoyl)-2-(6-azaspiro[2.5]octan-6-yl)benzamide]
195 | Cc1cc(NC(=O)c2ccc([S@](=N)(=O)C3CC3)cc2N2CCC3(CC2)CC3)nc(N2CCO[C@H](C)C2)n1 [Example 19-7, 2-(6-Azaspiro[2.5]octan-6-yl)-4-(S-cyclopropylsulfonimidoyl)-N-(6-methy-2-((2R)-2-methyl-4-moprpholinyl)-4-pyrimidinyl)benzamide]
42 | Cc1cc(NC(=O)c2ccc(S(=O)(=O)NCCO)cc2N2CCC3(CC2)CC3)nc(OCCC(F)(F)F)n1 [Example 17-2, 4-(N-(2-Hydroxyethyl)sulfamoyl)-N-(6-methyl-2-(3,3,3-trifluoropropoxy)pyrimidin-4-yl)-2-(6-azaspiro[2.5]octan-6-yl)benzamide]
23 | O=C(Nc1ccnc(N2CCC(F)(F)CC2)n1)c1ccc(S(=O)(=O)NCCO)cc1N1CCC2(CC1)CC2 [Example 17-4, N-(2-(4,4-Difluoropiperidin-1-yl)pyrimidin-4-yl)-4-(N-(2-hydroxyethyl)sulfamoyl)-2-(6-azaspiro[2.5]octan-6-yl)benzamide]
